From article PMC10278368 (The Pediatric infectious disease journal, 2011)
Values after ≈ are worked out from the molar mass of the structure shown. Where a name gives a salt, the structure may show the parent alone. Read-outs that look alike come from different tables or passages of the source. Bridge positions count the residues as written; N and C are the ends. Square brackets hold non-standard residues; d marks the D form. Peptide text beside a SMILES is read from it. * marks the point of attachment. X1 = CC[C@H](C)CCCCC(=O)*; Dab = NCC[C@H](N)C(=O)O

Tests used:
[1] = assay type: in vivo, human
[2] = test system: multidrug resistant Klebsiella pneumoniae; experiment: microbe, parasite or virus in culture
[3] = test system: multidrug resistant Klebsiella pneumoniae; conditions: blood culture isolate of the patient; for MIC: method not stated
[4] = test system: multidrug resistant Klebsiella pneumoniae; assay type: in vivo, human; conditions: 1.5 mg/kg/dose every 12 hours IV in combination with amikacin once daily; persistently febrile; infant, n = 1
[5] = test system: Acinetobacter baumannii; experiment: MIC of the endotracheal aspirate isolate; assay type: cell-based; conditions: isolate from endotracheal aspirate of the patient; reported as susceptible

Molecule: CC[C@H](C)CCCCC(=O)N[C@@H](CCN)C(=O)N[C@H](C(=O)N[C@@H](CCN)C(=O)N[C@H]1CCNC(=O)[C@H]([C@@H](C)O)NC(=O)[C@H](CCN)NC(=O)[C@H](CCN)NC(=O)[C@H]([C@@H](C)CC)NC(=O)[C@@H](Cc2ccccc2)NC(=O)[C@H](CCN)NC1=O)[C@@H](C)O [Isoleucine Polymyxin B1] (X1-[Dab]T[Dab][Dab][Dab][dF]I[Dab][Dab]T; lactam 4-C)
- clearance ([1]; human, in vivo, iv): 4.02 mL/min

Molecule: CC[C@H](C)CCCCC(=O)N[C@@H](CCN)C(=O)N[C@H](C(=O)N[C@@H](CCN)C(=O)N[C@H]1CCNC(=O)[C@H]([C@@H](C)O)NC(=O)[C@H](CCN)NC(=O)[C@H](CCN)NC(=O)[C@H](CC(C)C)NC(=O)[C@@H](Cc2ccccc2)NC(=O)[C@H](CCN)NC1=O)[C@@H](C)O [Polymyxin B1] (X1-[Dab]T[Dab][Dab][Dab][dF]L[Dab][Dab]T; lactam 4-C)
- clearance ([1]; human, in vivo, iv): 5.07 mL/min
- half-life ([1]; human, in vivo, iv): 184 min
- elimination half-life (rounded) ([1]; infant, n = 1, IV polymyxin B, steady-state serum, LC-MS): 3.1 h

Molecule: NCC[C@H](O)C(=O)N[C@@H]1C[C@H](N)[C@@H](O[C@H]2O[C@H](CN)[C@@H](O)[C@H](O)[C@H]2O)[C@H](O)[C@H]1O[C@H]1O[C@H](CO)[C@@H](O)[C@H](N)[C@H]1O [amikacin]
- MIC [2]: < 2 µg/mL

Molecule: C[C@H]1[C@H](NC(=O)/C(=N\OC(C)(C)C(=O)O)c2csc(N)n2)C(=O)N1S(=O)(=O)O [aztreonam]
- MIC [2]: > 64 µg/mL

Molecule: CC(C)(O/N=C(\C(=O)N[C@@H]1C(=O)N2C(C(=O)[O-])=C(C[n+]3ccccc3)CS[C@H]12)c1csc(N)n1)C(=O)O [ceftazidime]
- MIC [2]: 16 µg/mL (≈ 29.3 µM)

Molecule: CO/N=C(\C(=O)N[C@@H]1C(=O)N2C(C(=O)O)=C(CSc3nc(=O)c(=O)[nH]n3C)CS[C@H]12)c1csc(N)n1 [ceftriaxone]
- MIC [2]: 16 µg/mL (≈ 28.9 µM)

Molecule: C[C@@H](O)[C@H]1C(=O)N2C(C(=O)O)=C(S[C@@H]3CN[C@H](C(=O)N(C)C)C3)[C@H](C)[C@H]12 [meropenem]
- MIC ([2]; read-out: MIC by E-test): 32 µg/mL (≈ 83.4 µM)

Molecule: CC[C@H](C)CCCCC(=O)N[C@@H](CCN)C(=O)N[C@H](C(=O)N[C@@H](CCN)C(=O)N[C@H]1CCNC(=O)[C@H]([C@@H](C)O)NC(=O)[C@H](CCN)NC(=O)[C@H](CCN)NC(=O)[C@H](CC(C)C)NC(=O)[C@@H](Cc2ccccc2)NC(=O)[C@H](CCN)NC1=O)[C@@H](C)O [polymyxin B, Polymyxin B sulfate] (X1-[Dab]T[Dab][Dab][Dab][dF]L[Dab][Dab]T; lactam 4-C (inferred); N-terminus assumed)
- MIC by E-test ([3]; E-test): 1.5 µg/mL
- days of persistently positive blood cultures under treatment [4]: 3 days

Molecule: ampicillin/sulbactam
- MIC [3]: > 32 µg/mL

Molecule: piperacillin/tazobactam
- MIC [3]: > 128 µg/mL
- MIC [5]: < 4 µg/mL
